How the values were obtained:
[1] = tested on: chronic rhinosinusitis (CRS) with nasal polyps; assay: Example #12: placebo controlled study in chronic rhinosinusitis with nasal polyps; assay type: in vivo, human; conditions: after 12 weeks
episodic migraine = conditions: continuous carbon dioxide infusion; cited from earlier work
[2] = cited from earlier work

C[C@@H]1C[C@H]2[C@@H]3C[C@H](F)C4=CC(=O)C=C[C@]4(C)[C@@]3(F)[C@@H](O)C[C@]2(C)[C@@]1(O)C(=O)SCF [fluticasone]
change in summed polyp score [1]: −0.98

O=C=O [carbon dioxide]
two-hour pain free response (episodic migraine): 25.0% | dips in mucosal pH ([2]; 5 L/min carbon dioxide in concentrations of 15% and 45%): 0.1-0.2 pH units | decrease of extracellular nasal mucosal pH ([2]; 5 L/min, 3 s duration, 20% carbon dioxide, basal ~7.4): 0.05-0.1 pH units
